The source of these data is patent US9720000B2, “Targeted identification of immunogenic peptides” (The Henry M. Jackson Foundation for the Advancement of …, priority 2005, dated 2017).

Common to all, as to assay type: cell-based
For one experiment, the system named is MCF-7 tumor cells. The experiment can be described thus: 51Cr-release cytotoxicity (CTX) assay with peptide-stimulated CTL against MCF-7. The settings on record: for average specific CTX (% lysis) against MCF-7: peptide-stimulated CTL from healthy donor PBMC, MCF-7 (HLA-A2+), n = 5. How it is done: (§1) T2 HLA-stabilization assays were performed to confirm HLA-A2 binding activity of Her577 by flow cytometry. PBMC from 9 healthy donors were stimulated with Her577 and tested in ^51Cr-release cytotoxicity (CTX) assays against 3 HER2/neu-expressing tumor cell lines.

The next experiment addresses T1, HLA-A2 (Homo sapiens, UniProt P04439, D140Y/D185E/D98H/E176V/E277Q/G131W/G231S/I119V/I121R/I166T/I218V/L300P/L318F/N151K/N90K/P208A/P217A/Q86G/Q94H/R138H/R169H/T345S).
T1 construct: endogenous in cells; host or cells: T2 cells
The experiment can be described thus: T2 HLA-stabilization (peptide-binding) assay by flow cytometry. The settings on record: peptide incubated with T2 cells (25 μg per FIG. 5). Here is the method: FIG. 5 depicts a T2 Peptide-binding assay, in which 25 μg of peptide were incubated with T2 cells, levels of HLA-A2 levels were measured by flow cytometry and are indicated as Mean Fluorescence Intensity units.
as §1

For another experiment, the system named is SKOV-3 tumor cells. Kind of experiment: 51Cr-release cytotoxicity (CTX) assay with peptide-stimulated CTL against SKOV-3. The settings on record: for average specific CTX (% lysis) against SKOV-3: peptide-stimulated CTL from healthy donor PBMC, SKOV-3 (HLA-A3+), n = 2. Here is the method: as §1
Another experiment relates to LNCaP tumor cells. Kind of experiment: 51Cr-release cytotoxicity (CTX) assay with peptide-stimulated CTL against LNCaP. The settings on record: for average specific CTX (% lysis) against LNCaP: peptide-stimulated CTL from healthy donor PBMC, LNCaP (HLA-A2+), n = 2. How it is done:
as §1

Setting [1] is: Her577-stimulated CTL, targets pre-treated with Tz at 50 μg/ml for 24 h, P=0.19.

Regarding “GP2: immunogenic peptide from HER2/neu (IISAVVGIL) [reference compound]”, in the experiment with MCF-7 tumor cells, the “average specific CTX (% lysis) against MCF-7” value is listed as 48 ± 1 % lysis. Besides, in the experiment with HLA-A2, the “mean fluorescence intensity (HLA-A2 level on T2 cells)” value came to 682. The “average specific CTX (% lysis) against SKOV-3” value with SKOV-3 tumor cells was 46 ± 5 % lysis. In the experiment with LNCaP tumor cells, the “average specific CTX (% lysis) against LNCaP” value was determined as 26 ± 9 % lysis.

Consider “Her577: peptide Her577 (aa; 577-585) within the Ab-binding site of trastuzumab on HER2/neu (FGPEADQCV)”, for which, in the experiment on MCF-7 tumor cells (setting [1]), the “increase in specific CTX versus untreated MCF-7” value was determined as 16%. Besides, the “average specific CTX (% lysis) against MCF-7” value with MCF-7 tumor cells is on record as 45 ± 3 % lysis. For the same substance, in the experiment with HLA-A2, the “mean fluorescence intensity (HLA-A2 level on T2 cells)” value is reported as 1275. In addition, the “increase in specific CTX versus untreated SKOV-3” value in the experiment with SKOV-3 tumor cells (setting [1]) is 47%. For the same substance, the “average specific CTX (% lysis) against SKOV-3” value in the experiment with SKOV-3 tumor cells is 49 ± 28 % lysis. Further, in the experiment with LNCaP tumor cells (setting [1]), the “increase in specific CTX versus untreated LNCaP” value was determined as 83%. The “average specific CTX (% lysis) against LNCaP” value with LNCaP tumor cells came out at 30 ± 3 % lysis.
